Assay results: patent publication US10253002B2, “Compounds and methods of treating infections” (Neoculi Pty Ltd., priority 2013, dated 2019)

Legend:
Assay in all cases: Broth microdilution MIC, Example 7 (NCL812 and analogues)
Pseudomonas aeruginosa = format: cell-based; conditions: 24 hours; 1st and 2nd replicate rows
Escherichia coli = format: cell-based; conditions: 24 hours; 1st and 2nd replicate rows
MRSA = format: cell-based, Staphylococcus aureus; conditions: 24 hours, 1st and 2nd replicate rows; for MIC (μg/ml) at 24 hours, MRSA 1: isolate MRSA 1; for MIC (μg/ml) at 24 hours, MRSA 2: isolate MRSA 2
Procedure: (§1) Minimum inhibitory concentrations (μg/ml) were determined using the broth microdilution method recommended by the Clinical and Laboratory Standards Institute (CLSI). MIC breakpoints were determined by visual assessment and then confirmed using an ELISA plate reader, measuring absorbance levels at 600 nm. Bacterial growth (turbidity) in the wells with antimicrobial was compared with the amount of growth (turbidity) in the growth-control well (containing no antimicrobial). All isolates were tested in duplicate, if there was a difference of greater than one two-fold dilution in the results, the test was repeated a third time. The purity of the isolates was closely monitored during testing by subculturing the prepared bacterial inoculum onto SBA (sheep blood agar). […] The MIC50, MIC20 and MIC range (minimum and maximum) were calculated for each of the bacterial groups.
(§2) MICs were determined against two MRSA strains, two VRE strains and one strain each of E. coli and Pseudomonas aeruginosa.

VRE = format: cell-based, Enterococcus spp.; conditions: for MIC (μg/ml) at 24 hours, VRE 1: isolate VRE 1; for MIC (μg/ml) at 24 hours, VRE 1 / MIC (μg/ml) at 24 hours, VRE 2: 1st and 2nd replicate rows; for MIC (μg/ml) at 24 hours, VRE 2: isolate VRE 2
Procedure: as §1, §2

Row | MIC (μg/ml) at 24 hours, P. aeruginosa (Pseudomonas aeruginosa) | MIC (μg/ml) at 24 hours, E. coli (Escherichia coli) | MIC (μg/ml) at 24 hours, MRSA 1 (MRSA) | MIC (μg/ml) at 24 hours, MRSA 2 (MRSA) | MIC (μg/ml) at 24 hours, VRE 1 (VRE) | MIC (μg/ml) at 24 hours, VRE 2 (VRE) | Compound | activity against VRE among analogues (VRE; MIC testing, two VRE strains)
1 | >128 µg/mL | >128 µg/mL | >128 µg/mL | >128 µg/mL | >128 µg/mL | >128 µg/mL | NC(=O)N/N=C/c1ccccc1Cl [NCL047] | 
2 | >128 µg/mL | >128 µg/mL | >128 µg/mL | >128 µg/mL | >128 µg/mL | >128 µg/mL | NC(=O)N/N=C/c1ccccc1F [NCL048] | 
3 | >128 µg/mL | >128 µg/mL | >128 µg/mL | >128 µg/mL | >128 µg/mL | >128 µg/mL | N#Cc1ccc(/C=N/NC(N)=O)cc1 [NCL049] | 
4 | >128 µg/mL | >128 µg/mL | >128 µg/mL | >128 µg/mL | >128 µg/mL | >128 µg/mL | N#Cc1ccccc1/C=N/NC(N)=O [NCL050] | 
5 | >128 µg/mL | >128 µg/mL | >128 µg/mL | >128 µg/mL | >128 µg/mL | >128 µg/mL | N#Cc1cccc(/C=N/NC(N)=O)c1 [NCL051] | 
6 | >128 µg/mL | >128 µg/mL | >128 µg/mL | >128 µg/mL | >128 µg/mL | >128 µg/mL | NC(=O)N/N=C/c1cccc(Cl)c1 [NCL055] | 
7 | >128 µg/mL | >128 µg/mL | >128 µg/mL | >128 µg/mL | >128 µg/mL | >128 µg/mL | NC(=O)N/N=C/c1ccc(F)cc1 [NCL056] | 
8 | >128 µg/mL | >128 µg/mL | >128 µg/mL | >128 µg/mL | >128 µg/mL | >128 µg/mL | NC(=O)N/N=C/c1cccc(F)c1 [NCL057] | 
9 | >128 µg/mL | >128 µg/mL | >128 µg/mL | >128 µg/mL | >128 µg/mL | >128 µg/mL | COc1ccc(/C=N/NC(N)=O)cc1 [NCL058] | 
10 | >128 µg/mL | >128 µg/mL | >128 µg/mL | >128 µg/mL | >128 µg/mL | >128 µg/mL | COc1cccc(/C=N/NC(N)=O)c1 [NCL059] | 
11 | >128 µg/mL | >128 µg/mL | >128 µg/mL | >128 µg/mL | >128 µg/mL | >128 µg/mL | NC(=O)N/N=C/c1ccccc1C(F)(F)F [NCL060] | 
12 | >128 µg/mL | >128 µg/mL | >128 µg/mL | >128 µg/mL | >128 µg/mL | 8 µg/mL | CC(=NNC(=N)NN=C(C)c1ccc(C(F)(F)F)cc1)c1ccc(C(F)(F)F)cc1.Cl [NCL061] | greatest activity
